We go through one molecule from patent US20240245677A1, “SELECTED COMPOUNDS FOR TARGETED DEGRADATION OF BRD9” (C4 THERAPEUTICS, INC., priority 2021, published 2024).

“And” between values parts separate entries of the source, which are not always exact repeats. Identical values can stand only once. Like-named read-outs stand apart in the source and are kept apart here.

The target of one data set is T1, bromodomain of BRD9 (Homo sapiens, UniProt Q9H8M2).
T1 construct: made in house; host or cells: E. coli
The data set is described as follows: AlphaLISA competition assay, binding to BRD9. On the procedure: An AlphaLISA® (Perkin Elmer Inc., Dumfries, VA, USA) displacement assay was used to determine the binding affinity of Compound 1 to purified bromodomain of BRD9 protein.
Human histidine-tagged (His-tag) bromodomain of BRD9 was expressed in E. coli and purified, with a concentration of 1.1 mg/mL. The bromodomain of BRD9 was labeled with an AlphaLISA® donor bead (Catalog No. AS101R, Perkin Elmer Inc., Dumfries, VA, USA) attached via a His-tag on the protein. A potent BRD9 ligand was chemically modified to attach a biotin tag. The biotin tag was subsequently used to attach a streptavidin-labeled AlphaLISA® acceptor bead (Catalog No. AL125M, Perkin Elmer Inc., Dumfries, VA, USA).
Determination of the binding constant (Kd) of Compound 1 to the bromodomain of BRD9 was carried out using an AlphaLISA® competition assay, where binding of Compound 1 to BRD9 was measured via loss of signal upon displacement of biotinylated BRD9 ligand tagged with the AlphaLISA® acceptor bead. […]
Response (normalized signal), R, for each well containing the test compounds was calculated using the averaged signal from negative and positive control wells: […]
Compound 1 competed with fluorescence probe for binding to bromodomain of BRD9. […]
Background: Alpha assays give light when donor and acceptor beads are brought close together.

The nature of data set [1]: Crystallization by addition of anti-solvent. The settings on record: for Comments: form after seeding: add Pattern G as seeds, slurry for 5 days. In kind it is physicochemical. On the procedure: Based on approximate solubility results, about 20 mg of Compound 1 free form Pattern E was dissolved in the minimal amount of good solvent. Anti-solvent was added into the obtained solutions slowly. Precipitates were collected by centrifuged. The solid part (wet cake) were investigated by XRPD.

T1 sequence (Q9H8M2 136-240 limits assumed): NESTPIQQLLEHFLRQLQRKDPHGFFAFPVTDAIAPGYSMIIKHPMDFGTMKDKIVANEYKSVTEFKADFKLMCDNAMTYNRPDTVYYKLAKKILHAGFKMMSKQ

As usually defined, the Kd is the equilibrium constant for the complex coming apart. `COc1cc(-c2cn(C)c(=O)c(C)c2C)cc(OC)c1CN1CC[C@H](N2CCN(c3ccc(N[C@H]4CCC(=O)NC4=O)cc3F)CC2)C(F)(F)C1` [Compound 1, (S)-3-((4-(4-((S)-1-(2,6-dimethoxy-4-(1,4,5-trimethyl-6-oxo-1,6-dihydropyridin-3-yl)benzyl)-3,3-difluoropiperidin-4-yl)piperazin-1-yl)-3-fluorophenyl)amino)-piperidine-2,6-dione]: the Kd at bromodomain of BRD9 (each occasion in duplicate, read-out: Kd, individual test occasion) is 157 nM and 131 nM and 129 nM; at bromodomain of BRD9 (n=3, read-out: Kd (geometric mean), binding affinity to BRD9), 139 nM. Also, the “Comments: form after seeding” value in data set [1] (2-MeTHF/110, Heptane/200) is on record as “for 5 days: Pattern G”; in data set [1] (DCM/200, Heptane/400) it was “Pattern F”; in data set [1] (THF/40, Heptane/160), “for 5 days: Pattern G”. Further, the XRPD entry in data set [1] (solvent 1,4-dioxane/200, anti-solvent Heptane/400) was “Pattern F”; in data set [1] (solvent DCM/200, anti-solvent MTBE/400) it was “Pattern F”. Moreover, the Comments result in data set [1] (solvent 2-MeTHF/200, anti-solvent MTBE/200) was “Oil-like sample”.
